Conditions: for vapor or sublimation pressure: Liquid; for mass density: Fluid (supercritical or subcritical phases), Vibrating tube method

C/C=C/C [(E)-2-butene]
Conditions	vapor or sublimation pressure [kPa]
391.25 K	2128.9
396.15 K	2323.1
401.02 K	2529.8
405.96 K	2755.8
411.21 K	3016
416.99 K	3326
423.45 K	3697

Conditions	mass density [kg/m3]
393.24 K, 2756 kPa	454.89
393.24 K, 10003 kPa	497.51
393.24 K, 19992 kPa	528.52
393.24 K, 24995 kPa	539.91
393.24 K, 29988 kPa	549.71
393.24 K, 34990 kPa	558.37
393.24 K, 39993 kPa	566.17
393.25 K, 4997 kPa	472.39
393.25 K, 14998 kPa	514.88
398.24 K, 2959 kPa	443.84
398.24 K, 4981 kPa	462.17
398.24 K, 19993 kPa	522.99
398.24 K, 24990 kPa	534.84
398.24 K, 29994 kPa	545.03
398.24 K, 34989 kPa	553.97
398.24 K, 39985 kPa	561.98
398.25 K, 9988 kPa	490.01
398.25 K, 14985 kPa	508.6
403.24 K, 3180 kPa	432.03
403.24 K, 4993 kPa	451.14
403.24 K, 20001 kPa	517.41
403.24 K, 24988 kPa	529.74
403.24 K, 29983 kPa	540.28
403.24 K, 40005 kPa	557.82
403.25 K, 9990 kPa	482.36
403.25 K, 14985 kPa	502.24
403.25 K, 34985 kPa	549.53
408.25 K, 3414 kPa	419.31
408.25 K, 4983 kPa	439.35
408.25 K, 9983 kPa	474.42
408.25 K, 14983 kPa	495.75
408.25 K, 19999 kPa	511.74
408.25 K, 24993 kPa	524.63
408.25 K, 29986 kPa	535.55
408.25 K, 35006 kPa	545.13
408.25 K, 39984 kPa	553.58
413.25 K, 3663 kPa	405.52
413.25 K, 4996 kPa	426.54
413.25 K, 9995 kPa	466.32
413.25 K, 14985 kPa	489.18
413.25 K, 19983 kPa	505.96
413.25 K, 24984 kPa	519.43
413.25 K, 30003 kPa	530.83
413.25 K, 34985 kPa	540.64
413.25 K, 39999 kPa	549.4
418.25 K, 3926 kPa	390.44
418.25 K, 5005 kPa	412.09
418.25 K, 10002 kPa	457.93
418.25 K, 14984 kPa	482.48
418.25 K, 19988 kPa	500.19
418.25 K, 25008 kPa	514.29
418.25 K, 30007 kPa	526.05
418.25 K, 34987 kPa	536.18
418.25 K, 40000 kPa	545.19
423.25 K, 4203 kPa	373.85
423.25 K, 4985 kPa	394.86
423.25 K, 9986 kPa	449.09
423.25 K, 14991 kPa	475.65
423.25 K, 20002 kPa	494.39
423.25 K, 24993 kPa	509.02
423.25 K, 30004 kPa	521.25
423.25 K, 34988 kPa	531.71
423.25 K, 39993 kPa	540.98
428.25 K, 4495 kPa	355.87
428.25 K, 4987 kPa	374.39
428.25 K, 9990 kPa	440.12
428.25 K, 14983 kPa	468.7
428.25 K, 20010 kPa	488.52
428.25 K, 24997 kPa	503.78
428.25 K, 30004 kPa	516.44
428.25 K, 34994 kPa	527.25
428.25 K, 39986 kPa	536.76
433.25 K, 5019 kPa	349.08
433.25 K, 9991 kPa	430.38
433.25 K, 14995 kPa	461.71
433.25 K, 19998 kPa	482.53
433.25 K, 25004 kPa	498.52
433.25 K, 30001 kPa	511.61
433.25 K, 34993 kPa	522.78
433.25 K, 39997 kPa	532.57
438.25 K, 5017 kPa	309.55
438.25 K, 9985 kPa	420.62
438.25 K, 14989 kPa	454.5
438.25 K, 19998 kPa	476.52
438.25 K, 25008 kPa	493.22
438.25 K, 30004 kPa	506.79
438.25 K, 34989 kPa	518.29
438.25 K, 39985 kPa	528.34
443.25 K, 5019 kPa	241.91
443.25 K, 9986 kPa	410.38
443.25 K, 14991 kPa	447.2
443.25 K, 20002 kPa	470.46
443.25 K, 25001 kPa	487.86
443.25 K, 30002 kPa	501.91
443.25 K, 34997 kPa	513.82
443.25 K, 39989 kPa	524.15
448.25 K, 5019 kPa	186.22
448.25 K, 9990 kPa	399.76
448.25 K, 14990 kPa	439.76
448.25 K, 19992 kPa	464.3
448.25 K, 24997 kPa	482.49
448.25 K, 29990 kPa	497.07
448.25 K, 34988 kPa	509.34
448.25 K, 39987 kPa	519.97
453.25 K, 5019 kPa	159.59
453.25 K, 9992 kPa	388.61
453.25 K, 14987 kPa	432.19
453.25 K, 20001 kPa	458.19
453.25 K, 24998 kPa	477.11
453.25 K, 29995 kPa	492.22

Source: the NIST ThermoML archive (doi:10.1016/j.fluid.2004.09.013)
